In PMC5512079, “The sialate O-acetylesterase EstA from gut Bacteroidetes species enables sialidase-mediated cross-species foraging of 9-O-acetylated sialoglycans” (The Journal of Biological Chemistry, 2017):

Target: T1, B. thetaiotaomicron NanH sialidase (NanH-His) (Bacteroides thetaiotaomicron, UniProt Q8AAK9)
T1 construct: gene BT_0455
T1 sequence (Q8AAK9 23-544): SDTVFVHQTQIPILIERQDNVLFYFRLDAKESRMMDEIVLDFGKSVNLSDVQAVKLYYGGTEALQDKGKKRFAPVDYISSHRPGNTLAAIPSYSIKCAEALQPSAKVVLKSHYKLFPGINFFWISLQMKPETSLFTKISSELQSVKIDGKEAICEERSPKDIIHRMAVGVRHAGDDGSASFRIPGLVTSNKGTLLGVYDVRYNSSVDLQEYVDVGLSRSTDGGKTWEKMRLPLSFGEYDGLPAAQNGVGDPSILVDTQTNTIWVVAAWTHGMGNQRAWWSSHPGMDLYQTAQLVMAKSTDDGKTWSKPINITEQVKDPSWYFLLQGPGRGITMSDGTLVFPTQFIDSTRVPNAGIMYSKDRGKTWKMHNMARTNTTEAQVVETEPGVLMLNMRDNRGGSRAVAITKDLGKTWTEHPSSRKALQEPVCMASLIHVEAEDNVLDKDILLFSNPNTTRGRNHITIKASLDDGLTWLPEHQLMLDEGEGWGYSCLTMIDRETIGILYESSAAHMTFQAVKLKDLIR
Assay: fluorogenic sialidase assay, 4-methylumbelliferone release (ex […] nm, em […] nm)
Type: biochemical
Details: 100 uM 4-MU-Sia, PBS pH 7.4; used to test fractions and estimate milliunits

SMILES: CC(=O)N[C@H]1[C@H]([C@H](O)[C@H](O)CO)OC(Oc2ccc3c(C)cc(=O)oc3c2)(C(=O)O)C[C@@H]1O (stereo partly shown) [4-methylumbelliferyl-N-acetylneuraminic acid]
- fluorogenic sialidase assay, 4-methylumbelliferone release (ex 365 nm, em 440 nm): Fractions were tested for activity with the fluorogenic sialidase substrate 4-methylumbelliferyl-N-acetylneuraminic acid
